# Laboratory results taken from patent publication US20260083865A1, “PROSTATE SPECIFIC MEMBRANE ANTIGEN (PSMA) LIGANDS AND USE THEREOF” (priority 2022, published 2026).
# Like-named read-outs stand apart in the source and are kept apart here. Numbered stars: 1 amine (or outer) side, 2 acyl side, 3 side chain; on linkers, the order of the positions; unused ones are H or OH. Bridge positions count the residues as written; N and C are the ends. Square brackets hold non-standard residues; d marks the D form. Peptide text beside a SMILES is read from it. * marks the point of attachment. X3 = O=C(O)CN1CCN(CC(=O)O)CCN(CC(=O)NCCCOCCOCCOCCCN*)CCN(CC(=O)O)CC1; X2 = O=C(O)CN1CCN(CC(=O)O)CCN([C@H](CCC(=O)*)C(=O)O)CCN(CC(=O)O)CC1; DOTA = O=C(O)CN1CCN(CC(=O)O)CCN(CC(=O)*)CCN(CC(=O)O)CC1; Phe(4-Cl) = N[C@@H](Cc1ccc(Cl)cc1)C(=O)O; Arg(Me) = CNC(=N)NCCC[C@H](N)C(=O)O; Ethylenediamine = C(CN[*:2])N[*:1]; X1 = O=C(CC1CCN([*:1])CC1)[*:2]; Cit = NC(=O)NCCC[C@H](N)C(=O)O; Lys(Me) = CNCCCC[C@H](N)C(=O)O; Suc = O=C(CCC(=O)[*:2])[*:1]; Tle = CC(C)(C)[C@H](N)C(=O)O; Aib = CC(C)(N)C(=O)O
# Tests used:
# [1] = target: T1, Fc-fusion protein of human PSMA (hPSMA-Fc) (Homo sapiens, UniProt Q04609); test: Surface plasmon resonance assay (Biacore T200, single cycle kinetic); type: binding; conditions: hPSMA-Fc, 25° C., read-out: pKD CAT (converted)
# T1 construct: purchased Acro Biosystems PSA-H5264
# Method in brief: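 KD, expressed as pKD, came from 1:1 Langmuir fits of reference- and buffer-blank-subtracted SPR data. The runs were single-cycle kinetics at 25° C in HBST/0.1% DMSO over human PSMA-Fc, captured to ~1000 RU on a peptide-coated CM5 surface and regenerated with 10 mM glycine pH 1.5.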
# [2] = target: T2, PSMA-expressing C4-2 cells (Homo sapiens, UniProt Q04609); test: FACS binding assay (competition with 50 nM PSM-0183); conditions: C4-2 cells, read-out: pIC50 [C4-2] CAT (converted)
# T2 construct: PSMA-expressing C4-2 cells (ATCC, Cat. No. CRL-3314) were cultured in RPMI-1640; host or cells: C4-2 cells
# Method in brief: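 Competition format: fluorescent tracer PSM-0183 (50 nM) displaced from PSMA on C4-2 cells by a test compound titration over 1 h at 4 °C. Bound tracer was quantified as flow-cytometric AF488 median fluorescence after washing. Four-parameter logistic fits of MFI data gave IC50 and pIC50.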
# PC3-PIP tumor model = system: PC3-PIP tumor model; set-up: species or system mice; conditions: mouse, in vivo
# Method in brief: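 Male nude mice bearing shoulder xenografts (5×10^6 PC3-PIP cells, or 5×10^6 or 1×10^7 C4-2 cells) received ~30 MBq of ^111In-labeled compound intravenously via tail vein. SPECT/CT regions of interest for heart, kidney and tumor gave % ID/g, mean of two to three animals per time point, range as error.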
# recombinant human PSMA = target: T3, recombinant human PSMA (Homo sapiens, UniProt Q04609); test: Enzyme inhibition assay (GCPII Inhibitor Screening Kit, fluorescence-based); type: biochemical; conditions: carboxypeptidase activity of recombinant human PSMA; highest final concentration 1 μM
# T3 construct: purchased BioVision K440-100
# Procedure: This peptidase activity hydrolyzes γ-peptide bonds between N-acetyl amino acid and glutamate of its substrate.
# The carboxypeptidase inhibition of recombinant human PSMA by test compounds was assessed using a commercial fluorescence-based PSMA activity inhibition assay.
# The employed Glutamate Carboxypeptidase II (GCPII) Inhibitor Screening Kit (BioVision, Cat #K440-100) is a fluorescence-based, enzymatic in vitro assay to measure the potency of PSMA inhibitors. The provided substrate is […] in the presence of PSMA producing glutamate. The detection system is based on an enzymatic reaction in which a fluorogenic probe is reduced, generating a stable signal.
# For the assay, recombinant human PSMA was diluted in GCPII Assay Buffer as recommended in the assay protocol. Serial dilutions of the test compounds were prepared, starting from 10 μM (final reaction concentration of 1 μM). In a 96-well assay plate, 40 μL of the PSMA working solution was mixed with 30 μL of GCPII Assay Buffer. Next, 10 μL of the serially diluted test compounds were added. The mixture was incubated for 20 min at 37° C. Subsequently, 20 μL of a reaction mix solution was added. The fluorescence signal increased due to fluorophore reduction, which is directly proportional to the produced amount of glutamate, was measured in kinetic mode for 90 minutes at 37° C. in a SpectraMax M5 plate reader. RFU/see was assessed by the SoftMax Pro software and plotted against peptide concentrations. Four-parameter logistic (4PL) curve fitting and pIC50 calculations were performed using the GraphPad Prism software.
# [3] = pKD category for PSMA SPR activity assay
# [4] = SPR, single cycle kinetic, category
# [5] = FACS binding, competition with 50 nM PSM-0183, category
# T2 sequence (Q04609 whole entry): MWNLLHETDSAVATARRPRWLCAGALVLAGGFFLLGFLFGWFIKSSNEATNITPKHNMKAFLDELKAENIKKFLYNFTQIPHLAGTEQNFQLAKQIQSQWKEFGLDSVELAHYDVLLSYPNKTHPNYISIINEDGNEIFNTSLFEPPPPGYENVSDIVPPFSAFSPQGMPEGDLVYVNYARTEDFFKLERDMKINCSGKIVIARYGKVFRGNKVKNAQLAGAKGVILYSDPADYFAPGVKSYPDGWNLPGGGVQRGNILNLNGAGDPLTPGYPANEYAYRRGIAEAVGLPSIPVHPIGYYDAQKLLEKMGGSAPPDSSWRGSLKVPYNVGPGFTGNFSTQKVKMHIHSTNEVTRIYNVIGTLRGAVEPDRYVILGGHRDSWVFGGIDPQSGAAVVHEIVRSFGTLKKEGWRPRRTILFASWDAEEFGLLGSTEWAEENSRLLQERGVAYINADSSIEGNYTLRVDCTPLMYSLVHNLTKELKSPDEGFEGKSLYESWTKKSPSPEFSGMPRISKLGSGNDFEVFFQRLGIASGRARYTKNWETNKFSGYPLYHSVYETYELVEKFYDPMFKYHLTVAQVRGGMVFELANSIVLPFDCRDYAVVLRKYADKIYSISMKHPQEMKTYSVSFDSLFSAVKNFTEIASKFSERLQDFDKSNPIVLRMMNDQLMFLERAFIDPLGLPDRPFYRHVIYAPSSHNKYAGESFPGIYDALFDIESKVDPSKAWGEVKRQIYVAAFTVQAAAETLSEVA
# T3 sequence (Q04609 whole entry): as above
# T1 sequence (Q04609 44-750 limits assumed): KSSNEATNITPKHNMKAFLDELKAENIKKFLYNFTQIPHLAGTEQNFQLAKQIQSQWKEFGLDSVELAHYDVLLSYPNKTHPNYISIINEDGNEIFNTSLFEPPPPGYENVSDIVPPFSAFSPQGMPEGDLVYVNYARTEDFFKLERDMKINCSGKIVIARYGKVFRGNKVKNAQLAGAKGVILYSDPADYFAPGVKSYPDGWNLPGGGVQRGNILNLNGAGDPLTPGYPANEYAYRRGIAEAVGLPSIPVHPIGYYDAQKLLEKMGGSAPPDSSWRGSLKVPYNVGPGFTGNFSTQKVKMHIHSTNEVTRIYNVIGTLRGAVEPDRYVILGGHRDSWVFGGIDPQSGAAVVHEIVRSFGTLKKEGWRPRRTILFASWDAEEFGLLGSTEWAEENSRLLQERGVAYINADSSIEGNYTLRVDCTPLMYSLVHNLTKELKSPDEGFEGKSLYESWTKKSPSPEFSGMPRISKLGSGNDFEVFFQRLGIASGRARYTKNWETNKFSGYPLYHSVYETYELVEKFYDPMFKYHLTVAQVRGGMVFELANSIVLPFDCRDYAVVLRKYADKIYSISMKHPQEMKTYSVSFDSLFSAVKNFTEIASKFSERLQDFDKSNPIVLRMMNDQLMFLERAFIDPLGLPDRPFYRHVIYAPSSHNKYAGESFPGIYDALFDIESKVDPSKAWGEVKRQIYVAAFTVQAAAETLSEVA
Structure (SMILES),"Kd [1, 3]",IC50 ([2]; pIC50 category of FACS binding),AUC ratio [T/K] (PC3-PIP tumor model),Tumor AUC (PC3-PIP tumor model),IC50 (recombinant human PSMA),"Kd [1, 4]","IC50 [2, 5]"
"C[C@@H](O)[C@H](NC(=O)[C@@H](NC(=O)[C@@H]1CSSC[C@H](NC(=O)[C@H](Cc2ccc(Cl)cc2)NC(=O)C(C)(C)NC(=O)[C@@H](NC(=O)CC2CCN(C(=O)CN3CCN(CC(=O)O)CCN(CC(=O)O)CCN(CC(=O)O)CC3)CC2)[C@@H](C)O)C(=O)N[C@@H](CCCCN)C(=O)N[C@@H](CCCNC(=N)N)C(=O)N[C@@H](CCC(=O)O)C(=O)N[C@@H](CC(N)=O)C(=O)N1)C(C)(C)C)C(N)=O [PSM-0416, DOTA-Cmp-Thr-Aib-Pcf-[Cys-Lys-Arg-Glu-Asn-Cys]-Tle-Thr-NH2] ({DOTA}-[X1]T[Aib][Phe(4-Cl)]CKRENC[Tle]T-NH2; disulfide 5-10)",< 12.6 nM,< 200 nM,1.6,170 % ID/g*h,> 1000 nM,,
"CNCCCC[C@@H]1NC(=O)[C@@H](NC(=O)[C@H](Cc2ccc(Cl)cc2)NC(=O)C(C)(C)NC(=O)[C@@H](NC(=O)CC2CCN(C(=O)CN3CCN(CC(=O)O)CCN(CC(=O)O)CCN(CC(=O)O)CC3)CC2)[C@@H](C)O)CSSC[C@@H](C(=O)N[C@H](C(=O)N[C@H](C(N)=O)[C@@H](C)O)C(C)(C)C)NC(=O)[C@H](CC(N)=O)NC(=O)C(C)(C)NC(=O)[C@H](CCCNC(=N)NC)NC1=O [PSM-0194, DOTA-Cmp-Thr-Aib-Pcf-[Cys-Lys(Me)-Arg(Me)-Aib-Asn-Cys]-Tle-Thr-NH2] ({DOTA}-[X1]T[Aib][Phe(4-Cl)]C[Lys(Me)][Arg(Me)][Aib]NC[Tle]T-NH2; disulfide 5-10)",,,6.7,180 % ID/g*h,> 1000 nM,< 12.6 nM,< 200 nM
"C[C@@H](O)[C@H](NC(=O)CC1CCN(C(=O)CN2CCN(CC(=O)O)CCN(CC(=O)O)CCN(CC(=O)O)CC2)CC1)C(=O)NC(C)(C)C(=O)N[C@@H](Cc1ccccc1)C(=O)N[C@H]1CSSC[C@@H](C(=O)N[C@H](C(=O)NCCN)C(C)(C)C)NC(=O)[C@H](CC(N)=O)NC(=O)C(C)(C)NC(=O)[C@H](CCCNC(=N)N)NC(=O)[C@H](CCCCN)NC1=O [PSM-0241, DOTA-Cmp-Thr-Aib-Phe-[Cys-Lys-Arg-Aib-Asn-Cys]-Tle-en] ({DOTA}-[X1]T[Aib]FCKR[Aib]NC[Tle]-Ethylenediamine; disulfide 5-10)",,,0.54,300 % ID/g*h,,< 12.6 nM,< 200 nM
"C[C@@H](O)[C@H](NC(=O)CN1CCN(CC(=O)O)CCN(CC(=O)O)CCN(CC(=O)O)CC1)C(=O)NC(C)(C)C(=O)N[C@@H](Cc1ccccc1)C(=O)N[C@H]1CSSC[C@@H](C(=O)N[C@H](C(=O)NCCN)C(C)(C)C)NC(=O)[C@H](CC(N)=O)NC(=O)C(C)(C)NC(=O)[C@H](CCCNC(=N)N)NC(=O)[C@H](CCCCN)NC1=O [PSM-0199, DOTA-Thr-Aib-Phe-[Cys-Lys-Arg-Aib-Asn-Cys]-Tle-en] ({DOTA}-T[Aib]FCKR[Aib]NC[Tle]-Ethylenediamine; disulfide 4-9)",,,0.33,170 % ID/g*h,,< 12.6 nM,< 200 nM
"C[C@@H](O)[C@H](NC(=O)[C@@H](NC(=O)[C@@H]1CSSC[C@H](NC(=O)[C@H](Cc2ccccc2)NC(=O)C(C)(C)NC(=O)[C@@H](NC(=O)CC2CCN(C(=O)CC[C@H](C(=O)O)N3CCN(CC(=O)O)CCN(CC(=O)O)CCN(CC(=O)O)CC3)CC2)[C@@H](C)O)C(=O)N[C@@H](CCCCN)C(=O)N[C@@H](CCCNC(=N)N)C(=O)NC(C)(C)C(=O)N[C@@H](CC(N)=O)C(=O)N1)C(C)(C)C)C(N)=O [PSM-0218, DOTAGA-Cmp-Thr-Aib-Phe-[Cys-Lys-Arg-Aib-Asn-Cys]-Tle-Thr-NH2] (X2-[X1]T[Aib]FCKR[Aib]NC[Tle]T-NH2; disulfide 5-10)",,,1.2,150 % ID/g*h,,< 12.6 nM,< 200 nM
"C[C@@H](O)[C@H](NC(=O)[C@@H](NC(=O)[C@@H]1CSSC[C@H](NC(=O)[C@H](Cc2ccccc2)NC(=O)C(C)(C)NC(=O)[C@@H](NC(=O)CCC(=O)NCCCOCCOCCOCCCNC(=O)CN2CCN(CC(=O)O)CCN(CC(=O)O)CCN(CC(=O)O)CC2)[C@@H](C)O)C(=O)N[C@@H](CCCCN)C(=O)N[C@@H](CCCNC(N)=O)C(=O)NC(C)(C)C(=O)N[C@@H](CC(N)=O)C(=O)N1)C(C)(C)C)C(N)=O [PSM-0234, DOTA-Ttds-Thr-Aib-Phe-[Cys-Lys-Cit-Aib-Asn-Cys]-Tle-Thr-NH2] ({X3-Suc}-T[Aib]FCK[Cit][Aib]NC[Tle]T-NH2; disulfide 4-9)",,,0.64,62 % ID/g*h,,12.6 to 126 nM,200 to 1260 nM

# Now from value to compound:
"Kd [1, 3]",IC50 ([2]; pIC50 category of FACS binding),AUC ratio [T/K] (PC3-PIP tumor model),Tumor AUC (PC3-PIP tumor model),IC50 (recombinant human PSMA),"Kd [1, 4]","IC50 [2, 5]",Structure (SMILES)
< 12.6 nM,< 200 nM,,,> 1000 nM,,,"CC(=O)NC(C)(C)C(=O)N[C@@H](Cc1ccc(Cl)cc1)C(=O)N[C@H]1CSSC[C@@H](C(=O)N[C@H](C(N)=O)C(C)(C)C)NC(=O)[C@H](CC(N)=O)NC(=O)C(C)(C)NC(=O)[C@H](CCCNC(=N)N)NC(=O)[C@H](CCCCN)NC1=O [PSM-0424, Ac-Aib-Pcf-[Cys-Lys-Arg-Aib-Asn-Cys]-Tle-NH2] (Ac-[Aib][Phe(4-Cl)]CKR[Aib]NC[Tle]-NH2; disulfide 3-8)"
< 12.6 nM,< 200 nM,,,> 1000 nM,,,"CC(=O)N[C@H](C(=O)NC(C)(C)C(=O)N[C@@H](Cc1ccccc1)C(=O)N[C@H]1CSSC[C@@H](C(=O)N[C@H](C(=O)N[C@H](C(=O)N[C@@H](CC(=O)O)C(N)=O)[C@@H](C)O)C(C)(C)C)NC(=O)[C@H](CC(N)=O)NC(=O)C(C)(C)NC(=O)[C@H](CCCNC(=N)N)NC(=O)[C@H](CCCCN)NC1=O)[C@@H](C)O [PSM-0374, Ac-Thr-Aib-Phe-[Cys-Lys-Arg-Aib-Asn-Cys]-Tle-Thr-Asp-NH2] (Ac-T[Aib]FCKR[Aib]NC[Tle]TD-NH2; disulfide 4-9)"
< 12.6 nM,< 200 nM,1.4,250 % ID/g*h,> 1000 nM,,,"CC(=O)NC(C)(C)C(=O)N[C@@H](Cc1ccc(Cl)cc1)C(=O)N[C@H]1CSSC[C@@H](C(=O)N[C@H](C(=O)NCCNC(=O)CN2CCN(CC(=O)O)CCN(CC(=O)O)CCN(CC(=O)O)CC2)C(C)(C)C)NC(=O)[C@H](CC(N)=O)NC(=O)C(C)(C)NC(=O)[C@H](CCCNC(=N)N)NC(=O)[C@H](CCCCN)NC1=O [PSM-0516, Ac-Aib-Pcf-[Cys-Lys-Arg-Aib-Asn-Cys]-Tle-en-DOTA] (Ac-[Aib][Phe(4-Cl)]CKR[Aib]NC[Tle]-{Ethylenediamine-DOTA}; disulfide 3-8)"
< 12.6 nM,< 200 nM,1.7,270 % ID/g*h,,,,"C[C@@H](O)[C@H](NC(=O)CC1CCN(C(=O)CN2CCN(CC(=O)O)CCN(CC(=O)O)CCN(CC(=O)O)CC2)CC1)C(=O)NC(C)(C)C(=O)N[C@@H](Cc1ccc(Cl)cc1)C(=O)N[C@H]1CSSC[C@@H](C(=O)N[C@H](C(N)=O)C(C)(C)C)NC(=O)[C@H](CC(N)=O)NC(=O)C(C)(C)NC(=O)[C@H](CCCNC(=N)N)NC(=O)[C@H](CCCCN)NC1=O [PSM-0433, DOTA-Cmp-Thr-Aib-Pcf-[Cys-Lys-Arg-Aib-Asn-Cys]-Tle-NH2] ({DOTA}-[X1]T[Aib][Phe(4-Cl)]CKR[Aib]NC[Tle]-NH2; disulfide 5-10)"
< 12.6 nM,< 200 nM,2.6,130 % ID/g*h,,,,"CNCCCC[C@@H]1NC(=O)[C@@H](NC(=O)[C@H](Cc2ccc(Cl)cc2)NC(=O)C(C)(C)NC(C)=O)CSSC[C@@H](C(=O)N[C@H](C(=O)NCCNC(=O)CN2CCN(CC(=O)O)CCN(CC(=O)O)CCN(CC(=O)O)CC2)C(C)(C)C)NC(=O)[C@H](CC(N)=O)NC(=O)C(C)(C)NC(=O)[C@H](CCCNC(=N)NC)NC1=O [PSM-0481, Ac-Aib-Pcf-[Cys-Lys(Me)-Arg(Me)-Aib-Asn-Cys]-Tle-en-DOTA] (Ac-[Aib][Phe(4-Cl)]C[Lys(Me)][Arg(Me)][Aib]NC[Tle]-{Ethylenediamine-DOTA}; disulfide 3-8)"
